Test results: US20060128608A1, “Novel chemical compounds and their use” (priority 2002, published 2006)
Values after ≈ are worked out from the molar mass of the structure shown.

Assays:
P.aeruginosa ATCC27853 = assay: Antibiotic activity: minimum inhibitory concentration (MIC); format: cell-based; settings: strain ATCC27853
Method: (§1) Antibiotic activities were determined using measurement of minimum inhibitory concentrations by standard procedures referring to the Manual of Commercial Methods in Clinical Microbiology. Ed. Allan L. Truant. ASM Press (2002) and are reported as concentrations (μM).

E.coli ATCC25922 = assay: as above; format: cell-based; settings: Escherichia coli; strain ATCC25922
Method: as §1

Molecule	MIC (P.aeruginosa ATCC27853; Pseudomonas aeruginosa) [µM]	MIC (P.aeruginosa ATCC27853) [µM]	MIC (E.coli ATCC25922) [µM]
CCCCCCC(=O)OCC1OC(OC2C(N)CC(N)C(OC3OC(CN)C(OC(=O)CCCCCC)CC3N)C2O)C(OC(=O)CCCCCC)C(N)C1OC(=O)CCCCCC (stereo not drawn) [Compound 31]	32 (≈ 29.3 µg/mL)	–	–
NC[C@H]1O[C@H](O[C@H]2[C@H](O)[C@@H](O[C@H]3O[C@H](CO)[C@@H](O)[C@H](N)[C@H]3O)[C@H](N)C[C@@H]2N)[C@H](N)C[C@@H]1O [Tobramycin, reference compound]	2 (≈ 0.935 µg/mL)	–	–
NC1CC(O)C(CNC(=O)C[C@H](N)C(=O)O)OC1OC1C(N)CC(N)C(OC2OC(CO)C(O)C(N)C2O)C1O (stereo partly drawn) [Compound 32]	> 64	–	–
CCCCCCCCCCCCCCCC(=O)OCC1OC(OC2C(N)CC(N)C(OC3OC(CN)C(O)CC3N)C2O)C(O)C(N)C1O (stereo not drawn) [Compound 25, Tobramycin 6″-Palmitoyl Ester]	–	16 (≈ 11.3 µg/mL)	–
Neomycin [reference compound]	–	30	–
NCC1OC(OC2C(N)CC(N)C(OC3OC4COC(=O)CCCCCCCCCCC(=O)OC4C(N)C3O)C2O)C(N)CC1O (stereo not drawn) [Compound 30]	64 (≈ 42.4 µg/mL)	–	–
NCC[C@H](O)C(=O)N[C@@H]1C[C@H](N)[C@@H](O[C@H]2O[C@H](CN)[C@@H](O)[C@H](O)[C@H]2O)[C@H](O)[C@H]1O[C@H]1O[C@H](CO)[C@@H](O)[C@H](N)[C@H]1O [Amikacin, reference compound]	7.5 (≈ 4.39 µg/mL)	–	–
NC1CC(O)C(CNC(=O)[C@@H](N)CC(=O)O)OC1OC1C(N)CC(N)C(OC2OC(CO)C(O)C(N)C2O)C1O (stereo partly drawn) [Compound 33]	> 64	–	> 32
